For assay [1], the system named is tick-born encephalitis (TBE) virus. Conditions: in vivo; cited from earlier work.
A further assay relates to antigen specific T cells. Description: IFN-γ-ELISPOT of lymph node lymphocytes 10 days after subcutaneous vaccination. It is filed as in vivo, C57BL/6 mice. The conditions noted are these: lymph node lymphocytes of TRP-2 vaccinated mice; negative control with the same MHC restriction. As for the experimental part:
Experimental Groups (5 Mice Each) • 1) TRP-2 peptide • 2) TRP-2 peptide+HGH • 3) TRP-2 peptide+pR 60 • 4) TRP-2 peptide+pR 60+HGH
On day 0 mice were injected subcutaneously with a total volume of 100 μl containing the above mentioned compounds. Animals were sacrificed 10 days after injection of the vaccine and mesenteric and inguinal lymph nodes harvested. Results are illustrated in FIG. 1.
Lymphocytes were prepared from lymph nodes as follows: cells were passed through a 70 μm sieve and washed twice with DMEM medium (GIBCO BRL) containing 2.5% fetal calf serum (FCS; SIGMA chemicals). Cells were adjusted to 10^7 cells/ml in complete medium (DMEM+10% FCS). IFN-γ-ELISPOT assays were carried out in triplicate as described (Miyahira et al., 1995). This method is a widely used procedure allowing the quantification of antigen-specific T cells. Lymphocytes were restimulated with TRP-2 peptide or with an ovalbumin-derived peptide (SIINFEKL) with the same MHC restriction serving as negative control.
Spots representing single T cells specific for the peptide used for re-stimulation (and immunization) were counted. The number of background spots observed with cells incubated without peptide(s) was subtracted from all samples.

Regarding “HGH: Human growth hormone, pituitary-derived factor; SAIZEN, Laboratoires Serono used in Example 1”, the “vaccine efficacy / protection of animals” value in assay [1] was “potentiated vaccine efficacy and led to the protection of animals after only one injection of the vaccine”.

In the case of SIINFEKL [ovalbumine derived peptide], the “spots on restimulation with the ovalbumin-derived control peptide (IFN-γ-ELISPOT)” value with antigen specific T cells is “no spots detected”.
